Laboratory results taken from patent US20230167088A1, “1-PYRAZINYLPYRAZOLYL-3-OXYALKYL ACIDS AND THEIR DERIVATIVES, AND THEIR USE FOR CONTROL OF UNDESIRED PLANT GROWTH” (BAYER AKTIENGESELLSCHAFT, priority 2020, published 2023).

Key:
POLCO [1] = test: Herbicidal post-emergence action 1a (greenhouse pots, visual rating); type: in vivo, Polygonum convolvulus; settings: visual rating about 3 weeks after treatment
Method in brief: (§1)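 Weeds and crops sown in sandy loam in greenhouse pots were sprayed post-emergence at the one-leaf stage (2–3 weeks after sowing) with WP or EC formulations plus 0.5% additive at 600 l/ha water, 320 and/or 80 g/ha. About 3 weeks later damage was rated visually against untreated controls (0% = no effect, 100% = dead).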

LOLRI [2] = test: as above; type: in vivo, Lolium rigidum; settings: Dosage 320 g/ha; rated visually about 3 weeks after treatment; 100% = plants have died, 0% = like control plants
Method in brief: as §1

MATIN [3] = test: Herbicidal pre-emergence action 2b (doubly sown, 1280 g/ha); type: in vivo, Matricaria inodora; settings: doubly sown pots, dosage 1280 g/ha, visual scoring after about 3 weeks
Method in brief: (§2)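 Pots of sandy loam doubly sown with one monocot and one dicot weed species, covered, then soil surface sprayed pre-emergence with WP or EC formulations plus 0.5% additive at 600 l/ha water. Greenhouse-grown about 3 weeks; activity scored visually as % versus untreated controls (100% = dead).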

AMARE [4] = test: Herbicidal pre-emergence action 2a (greenhouse pots, visual scoring); type: in vivo, Amaranthus retroflexus; settings: dosage 320 g/ha, visual scoring after about 3 weeks vs untreated controls
Method in brief: (§3)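 Pre-emergence soil-surface spray: WP/EC, 0.5% additive, 600 l/ha water, 320 and/or 80 g/ha. Greenhouse ~3 wk. Visual % damage vs untreated (100% = plants dead, 0% = like control).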

STEME [5] = test: Herbicidal post-emergence action 1a (greenhouse pots, visual rating); type: in vivo, Stellaria media; settings: Dosage 320 g/ha; rated visually about 3 weeks after treatment; 100% = plants have died, 0% = like control plants
Method: [table] a) Seeds of monocotyledonous and dicotyledonous weeds and crop plants are placed in sandy loam in plastic or organic plant pots, covered with soil and cultivated in a greenhouse under controlled growth conditions. 2 to 3 weeks after sowing, the test plants are treated at the one-leaf stage. The compounds of the invention, formulated in the form of wettable powders (WP) or as emulsion concentrates (EC), are then sprayed onto the green parts of the plants as aqueous suspension or emulsion with addition of 0.5% additive at a water application rate of 600 1/ha (converted). After the test plants have been kept in the greenhouse under optimum growth conditions for about 3 weeks, the activity of the preparations is rated visually in comparison to untreated controls. For example, 100% activity=the plants have died, 0% activity=like control plants. Tables A1 to A15 below show the effects of selected compounds of the general formula (I) according to Tables 1 and 2 on various harmful plants and an application rate corresponding to 320 g/ha and/or 80 g/ha, which were obtained by the experimental procedure mentioned above.

LOLRI [6] = test: Herbicidal pre-emergence action 2a (greenhouse pots, visual scoring); type: in vivo, Lolium rigidum; settings: dosage 320 g/ha, visual scoring after about 3 weeks vs untreated controls
Method in brief: as §3

DIGSA = test: as above; type: in vivo, Digitaria sanguinalis; settings: dosage 320 g/ha, visual scoring after about 3 weeks
Method in brief: as §3

POAAN [7] = test: Herbicidal pre-emergence action 2b (doubly sown, 1280 g/ha); type: in vivo, Poa annua; settings: doubly sown pots, dosage 1280 g/ha, visual scoring after about 3 weeks
Method in brief: as §2

STEME [8] = test: Herbicidal pre-emergence action 2a (greenhouse pots, visual scoring); type: in vivo, Stellaria media; settings: dosage 320 g/ha, visual scoring after about 3 weeks vs untreated controls
Excerpt: [table] a) Seeds of monocotyledonous and dicotyledonous weed plants and crop plants are placed in plastic or organic plant pots and covered with soil. The compounds of the invention, formulated in the form of wettable powders (WP) or as emulsion concentrates (EC), are then applied onto the surface of the covering soil as aqueous suspension or emulsion with addition of 0.5% additive at a water application rate of 600 1/ha (converted). After the treatment, the pots are placed in a greenhouse and kept under good growth conditions for the trial plants. After about 3 weeks, the effect of the preparations is scored visually in comparison with untreated controls as percentages. For example, 100% activity=the plants have died, 0% activity=like control plants. Tables B1 to B15 below show the effects of selected compounds of the general formula (I) according to Tables 1 and 2 on various harmful plants and an application rate corresponding to 320 g/ha and/or 80 g/ha, which were obtained by the experimental procedure mentioned above.

ECHCG = test: Herbicidal pre-emergence action 2b (doubly sown, 1280 g/ha); type: in vivo, Echinochloa crus-galli; settings: doubly sown pots, dosage 1280 g/ha, visual scoring after about 3 weeks
Method in brief: as §2

MATIN [9] = test: Herbicidal post-emergence action 1a (greenhouse pots, visual rating); type: in vivo, Matricaria inodora; settings: visual rating about 3 weeks after treatment
Method in brief: as §1

STEME [10] = test: Herbicidal post-emergence action 1b (twin sowing, 1280 g/ha); type: in vivo, Stellaria media; settings: dosage 1280 g/ha, visual rating about 3 weeks after treatment
Method in brief: (§4)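 Twin-sown weeds in sandy loam, greenhouse-grown 2–3 weeks, sprayed post-emergence at one-leaf stage with WP/EC formulations plus 0.5% additive at 600 L/ha water. Damage rated visually about 3 weeks later versus untreated controls (100% = plants dead, 0% = like control).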

POAAN [11] = test: as above; type: in vivo, Poa annua; settings: dosage 1280 g/ha, visual rating about 3 weeks after treatment
Method in brief: as §4

ALOMY [12] = test: Herbicidal pre-emergence action 2a (greenhouse pots, visual scoring); type: in vivo, Alopecurus myosuroides; settings: dosage 320 g/ha, visual scoring after about 3 weeks
Method in brief: as §3

ALOMY [13] = test: Herbicidal post-emergence action 1a (greenhouse pots, visual rating); type: in vivo, Alopecurus myosuroides; settings: Dosage 320 g/ha; rated visually about 3 weeks after treatment; 100% = plants have died, 0% = like control plants
Method in brief: as §1

VERPE [14] = test: Herbicidal pre-emergence action 2a (greenhouse pots, visual scoring); type: in vivo, Veronica persica; settings: dosage 320 g/ha, visual scoring after about 3 weeks vs untreated controls
Method in brief: as §3

VIOTR = test: Herbicidal post-emergence action 1a (greenhouse pots, visual rating); type: in vivo, Viola tricolor; settings: dosage 320 g/ha, visual rating about 3 weeks after treatment
Method in brief: as §1

VERPE [15] = test: as above; type: in vivo, Veronica persica; settings: dosage 320 g/ha, visual rating about 3 weeks after treatment
Method in brief: as §1

AMARE [16] = test: as above; type: in vivo, Amaranthus retroflexus; settings: visual rating about 3 weeks after treatment
Method in brief: as §1

STEME [17] = test: Herbicidal pre-emergence action 2b (doubly sown, 1280 g/ha); type: in vivo, Stellaria media; settings: doubly sown pots, dosage 1280 g/ha, visual scoring after about 3 weeks
Method in brief: as §2

MATIN [18] = test: Herbicidal pre-emergence action 2a (greenhouse pots, visual scoring); type: in vivo, Matricaria inodora; settings: dosage 320 g/ha, visual scoring after about 3 weeks vs untreated controls
Method in brief: as §3

AMARE [19] = test: Herbicidal pre-emergence action 2b (doubly sown, 1280 g/ha); type: in vivo, Amaranthus retroflexus; settings: doubly sown pots, dosage 1280 g/ha, visual scoring after about 3 weeks
Method in brief: as §2

MATIN [20] = test: Herbicidal post-emergence action 1b (twin sowing, 1280 g/ha); type: in vivo, Matricaria inodora; settings: dosage 1280 g/ha, visual rating about 3 weeks after treatment
Method in brief: as §4

POLCO [21] = test: Herbicidal pre-emergence action 2a (greenhouse pots, visual scoring); type: in vivo, Polygonum convolvulus; settings: dosage 320 g/ha, visual scoring after about 3 weeks vs untreated controls
Method in brief: as §3

PHBPU = test: Herbicidal post-emergence action 1a (greenhouse pots, visual rating); type: in vivo, Pharbitis purpurea; settings: visual rating about 3 weeks after treatment
Method in brief: as §1

O=C(O)COc1nn(-c2cnccn2)c(-c2cccc(F)c2)c1Br [Example I-04]
90%: Post-emergence action against POLCO in % (POLCO [1]; dosage 320 g/ha) | Pre-emergence action against LOLRI in % (LOLRI [6]) | Pre-emergence action against DIGSA in % (DIGSA) | Pre-emergence action against STEME in % (STEME [8]) | Post-emergence action against MATIN in % (MATIN [9]; dosage 320 g/ha) | Post-emergence action at 1280 g/ha against POAAN in % (POAAN [11]) | Post-emergence action against ALOMY in % (ALOMY [13]) | Pre-emergence action against VERPE in % (VERPE [14]) | Post-emergence action against AMARE in % (AMARE [16]; dosage 80 g/ha) | Post-emergence action against AMARE in % (AMARE [16]; dosage 320 g/ha) | Pre-emergence action against MATIN in % (MATIN [18]) | Post-emergence action at 1280 g/ha against MATIN in % (MATIN [20]) | Pre-emergence action against POLCO in % (POLCO [21])
100%: Pre-emergence action at 1280 g/ha against MATIN in % (MATIN [3]) | Pre-emergence action against AMARE in % (AMARE [4]) | Pre-emergence action at 1280 g/ha against POAAN in % (POAAN [7]) | Pre-emergence action at 1280 g/ha against ECHCG in % (ECHCG) | Post-emergence action at 1280 g/ha against STEME in % (STEME [10]) | Pre-emergence action at 1280 g/ha against STEME in % (STEME [17]) | Pre-emergence action at 1280 g/ha against AMARE in % (AMARE [19])
80%: Post-emergence action against POLCO in % (POLCO [1]; dosage 80 g/ha) | Post-emergence action against LOLRI in % (LOLRI [2]) | Post-emergence action against STEME in % (STEME [5]) | Post-emergence action against MATIN in % (MATIN [9]; dosage 80 g/ha) | Pre-emergence action against ALOMY in % (ALOMY [12]) | Post-emergence action against VIOTR in % (VIOTR) | Post-emergence action against VERPE in % (VERPE [15]) | Post-emergence action against PHBPU in % (PHBPU; dosage 80 g/ha) | Post-emergence action against PHBPU in % (PHBPU; dosage 320 g/ha)
